“Also recorded” adds a separate entry of the source.
Tests used:
CD81-LEL = biological target: T1, CD81-LEL (Homo sapiens, UniProt P60033); assay: Surface plasmon resonance binding of ligands to immobilized CD81-LEL; conditions: for Binding (change in response units): 3 min association; for Dissociation 1 (change in response units) / Dissociation 2 (change in response units): dissociation interval
T1 construct: A recombinant form of the CD81-LEL protein with a GST tag; gift of Dr. Shoshana Levy, Stanford University
T1 sequence (P60033 113-201 limits assumed): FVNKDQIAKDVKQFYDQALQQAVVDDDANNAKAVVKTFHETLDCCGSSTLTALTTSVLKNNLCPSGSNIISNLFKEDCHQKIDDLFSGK
Protocol: SPR analysis was performed using a Biacore T200 workstation (GE Healthcare, NJ, USA). A recombinant form of the CD81-LEL protein with a GST tag (generously provided by Dr. Shoshana Levy, Stanford University) was used to confirm, using an established experimental technique, the binding of several ligands to the protein. Briefly, 10 μM CD81-LEL-GST diluted into 10 mM Na-Acetate buffer pH 4.5 was immobilized for 15 min at a flow speed of 5 μl/min onto a CM5 sensor chip using amine-coupling (EDC-NHS), Approximately 20,000 RU of protein were immobilized on the chip. The ligands were prepared as 600 μM solutions in PBS-0.05% Tween-80 (the running buffer) and they were introduced to the protein using a pre-programmed 3 minute association and 1 minute dissociation interval.
SPR analysis was performed using a Biacore T100 workstation (GE Healthcare, NJ, USA). […] Approximately 20,000 RU of protein were immobilized on the chip. The ligands were prepared as 200 uM solutions in PBS-1% DMSO (the running buffer) and they were introduced to the protein using a pre-programmed 3 min association and 1 min dissociation interval.

Plasmodium yoelii [1] = assay: Sporozoite infection assay, P. yoelii in Hepa1-6 cells; format: cell-based
Plasmodium yoelii [2] = assay: Sporozoite development assay, P. yoelii in HepG2-CD81 cells; format: cell-based
Protocol: (§1) Anopheles stephensi mosquitoes were fed on mice infected with Plasmodium yoelii 17XNL parasites. On day 14 post bloodmeal, salivary glands were harvested, homogenized, sporozoite number was determined using a hemocytometer and the indicated number of sporozoites was added to cell monolayers, Plasmodium falciparum sporozoites were generated by membrane feeding An. stephensi mosquitoes using gametocyte cultures generated in vitro.
(§2) HepG2-CD81 (14) cells were maintained in DMEM supplemented with 10% fetal calf serum and 1 mM glutamine (DMEM/FCS), mAb 2E6 was used for development assays and is directed against Plasmodium Hsp 70 (15) and mAb 2A10 is directed against the repeat region of P. falciparum CSP and was used for invasion assays.
(§3) 5×10^5 HepG2-CD81 cells were plated on collagen coated Lab-Tek wells and allowed to adhere overnight. The following day, cells were preincubated with 400 uM of compound for 30 minutes at 37° C. Controls were pre-incubated with DMSO at the same concentration in which it was found in the compound solutions. 10^5 sporozoites were added to each well and in the case of P. falciparum, incubated for 1.5 hours and scored for invasion whereas in the case of P. yoelii, incubated for 44 hours and scored for exoerythrocytic stages.

Plasmodium berghei = assay: Sporozoite infection assay, P. berghei in Hepa1-6 cells; format: cell-based
Plasmodium falciparum = assay: Sporozoite invasion assay, P. falciparum in HepG2-CD81 cells; format: cell-based; conditions: HepG2-CD81, Plasmodium falciparum, 400 uM compound
Protocol: as §1, §2, §3

[3] = biological target: T2, native CD81 on Raji cells (Homo sapiens, UniProt P60033); assay: Antibody neutralizing assay: inhibition of JS-81 anti-CD81 antibody binding on Raji cells (FACS); format: cell-based; conditions: for inhibition at 50 µM / inhibition at 100 µM / inhibition at 400 µM / Inhibition of JS-81 Binding (%): Raji cells; for inhibition at 50 µM / inhibition at 100 µM / inhibition at 400 µM: read-out: Inhibition of JS-81 Binding (%)
T2 construct: endogenous in cells; host or cells: Raji cells (human B cell line)
T2 sequence (P60033 1-236): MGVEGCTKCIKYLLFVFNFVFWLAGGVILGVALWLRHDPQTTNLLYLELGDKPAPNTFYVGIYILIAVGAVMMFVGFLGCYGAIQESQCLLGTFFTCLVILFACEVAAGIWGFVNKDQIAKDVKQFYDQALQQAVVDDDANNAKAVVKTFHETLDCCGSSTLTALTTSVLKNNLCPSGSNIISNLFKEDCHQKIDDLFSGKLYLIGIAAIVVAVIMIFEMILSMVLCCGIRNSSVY
Protocol: For antibody neutralization assay Raji cells were used, a human B cell line that expressed high amounts of CD81 on the surface (data not shown), Cells were grown in RPMI medium (10% FCS, 1% penicillin/streptomycin, 1% L-glutamine, 1% non-essential amino acids, 1% sodium pyruvate, pH 7.4, at 37° C. with 5% CO2). 2×10^5 cells were incubated with or without different concentrations (50 μM, 100 μM, 400 μM and 1 mM) of indicated inhibitor for 20 min at room temperature, subsequently 1 ul (16 ng/μl) of FITC-labeled anti CD81 antibody (BD Pharmingen, 551108) was added to the cells and incubated for 20 min (antibody titration was performed to obtain a working dilution range, data not shown). Cells were washed and analyzed by FACS (BD FACSCalibur, software: Cell Quest Pro). Mean Fluorescence Intensity MFI was calculated using Flowjo software (TreesStar, www.flowjo.com).

Structure (SMILES) | Binding (change in response units) (CD81-LEL; SPR) | Dissociation 1 (change in response units) (CD81-LEL; SPR) | Dissociation 2 (change in response units) (CD81-LEL; SPR) | Inhibition of JS-81 Binding (%) ([3]; 50 μM ligand) | Inhibition of JS-81 Binding (%) ([3]; 100 μM ligand) | Inhibition of JS-81 Binding (%) ([3]; 400 μM ligand) | also measured
O=C(O)Cn1ccc2ccccc21 [Ligand 75866, 2-indol-1-ylacetate] | 14.3 response units | 18.9 response units | 11.3 response units |  |  |  | Percent Infection (Plasmodium yoelii [1]; Hepa1-6 Cells, Plasmodium yoelii): 122%; effect on infection (in words) (Plasmodium yoelii [1]; P. yoelii, Hepa1-6 cells): didn't inhibit; Percent Infection (Plasmodium yoelii [2]; HepG2-CD81, Plasmodium yoelii, 400 uM compound): 42.6%; effect on infection (in words) (Plasmodium yoelii [2]; P. yoelii, HepG2-CD81): inhibit; also recorded: inhibitory effect; Percent Infection (Plasmodium berghei; Hepa1-6 Cells, Plasmodium berghei): 135%; effect on infection (in words) (Plasmodium berghei; P. berghei, Hepa1-6 cells): didn't inhibit; Percent Infection (Plasmodium falciparum): 84.2%
O=C(Cn1ccc(=O)[nH]c1=O)Nc1ccc(C(=O)O)c(O)c1 [Ligand 93033, 4-[[2-(2,4-dioxopyrimidin-1-yl)acetyl]amino]-2-hydroxybenzoate] | 6.7 response units | 16.8 response units | 7.9 response units |  |  |  | inhibition at 50 µM ([3]; 50 μM ligand): 0%; inhibition at 100 µM ([3]; 100 μM ligand): 0%; inhibition at 400 µM ([3]; 400 μM ligand): 16%; binding-dissociation behavior (in words) (CD81-LEL; SPR): comparable binding and dissociation
CC(C)=CCC1=C(OCC(=O)O)C(=O)c2ccccc2C1=O [Ligand 98026, 2-[3-(3-methylbut-2-enyl)-1,4-dioxonaphthalen-2-yl]oxyacetate] | 36.6 response units | 35.9 response units | 28.1 response units |  |  |  | inhibition at 50 µM ([3]; 50 μM ligand): 0%; inhibition at 100 µM ([3]; 100 μM ligand): 0%; inhibition at 400 µM ([3]; 400 μM ligand): 21%
O=C(O)c1cc(O)ccc1N=Nc1ccccc1 [Ligand 106863] |  |  |  | 0% | 0% | 19% | 
NC(=O)NC(=O)c1nccnc1C(=O)O [Ligand 117922] |  |  |  | 0% | 12% | 26% | 
CC(=NO)C1CC(CC(=O)O)C1(C)C (stereo not shown) [Ligand 127947] |  |  |  | 0% | 0% | 24% | 
NS(=O)(=O)c1ccc(N=Nc2c(O)c(C(=O)O)cc3ccccc23)cc1 [Ligand 134137] |  |  |  | 0% | 6% | 26% | 
O=C(O)/C=C/C(=O)Nc1cccc2cccnc12 [Ligand 144958] |  |  |  | 0% | 54% | 12% | 
CSc1ccc2c(c1)C(N1CCN(C)CC1)Cc1ccccc1S2 (stereo not shown) [Ligand 281816] |  |  |  |  |  |  | inhibition of anti-CD81 binding (in words) ([3]; 100 uM and 400 uM): inhibit anti-CD81 binding to CD81-LEL in a dose dependent manner; binding to CD81 by SPR (in words) (CD81-LEL): bind to CD81-LEL
